Laboratory results: doi:10.1101/2025.11.06.686927v1 (biorxiv, 2025)

Assays:
[1] = target: CDK2/cyclin A (Homo sapiens, UniProt P24941); experiment: biochemical; conditions: read-out: % of control remaining
[2] = target: T1, DYRK1A (RnDYRK1A-kd) (Rattus norvegicus, UniProt Q63470); experiment: radiometric […]-ATP kinase assay, peptide KKISGRLSPIMTEQ; type: biochemical; conditions: read-out: % residual activity at 10 μM
[3] = target: PIM1 (Homo sapiens, UniProt P11309); experiment: biochemical; conditions: read-out: % of control remaining
Sequence of PIM1 (P11309 whole entry): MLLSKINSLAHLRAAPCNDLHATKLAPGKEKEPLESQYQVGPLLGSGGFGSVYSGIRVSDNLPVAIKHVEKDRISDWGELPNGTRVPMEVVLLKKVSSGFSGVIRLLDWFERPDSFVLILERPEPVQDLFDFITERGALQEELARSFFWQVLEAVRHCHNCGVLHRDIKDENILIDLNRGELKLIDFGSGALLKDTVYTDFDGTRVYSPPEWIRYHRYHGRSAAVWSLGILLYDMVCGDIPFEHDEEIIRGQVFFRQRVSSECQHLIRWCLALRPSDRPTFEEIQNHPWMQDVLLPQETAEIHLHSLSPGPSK

[4] = tested on: SH-SY5Y; experiment: cells; design: species or system RPE-1, HCT116, U2OS; conditions: Homo sapiens, 48 h, read-out: SHSY-5Y EC50
[5] = target: T2, CDK8-cyclin C (HsCDK8/Cyclin C) (Homo sapiens, UniProt P49336); experiment: biochemical; conditions: read-out: % of control remaining
T2 sequence (P49336 whole entry): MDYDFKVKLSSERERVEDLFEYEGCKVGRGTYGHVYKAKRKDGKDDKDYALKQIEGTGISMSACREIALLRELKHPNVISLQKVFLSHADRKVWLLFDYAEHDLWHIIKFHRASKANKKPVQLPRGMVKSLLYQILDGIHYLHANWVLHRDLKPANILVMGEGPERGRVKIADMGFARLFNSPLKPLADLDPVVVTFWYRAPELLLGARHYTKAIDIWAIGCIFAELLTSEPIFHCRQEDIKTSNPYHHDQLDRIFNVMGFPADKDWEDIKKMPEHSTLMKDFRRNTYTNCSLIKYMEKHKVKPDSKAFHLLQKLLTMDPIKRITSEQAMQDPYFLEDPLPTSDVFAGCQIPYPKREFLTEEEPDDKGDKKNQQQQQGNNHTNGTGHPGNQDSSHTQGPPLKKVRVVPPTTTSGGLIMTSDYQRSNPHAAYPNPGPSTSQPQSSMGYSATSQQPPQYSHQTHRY
T2 sequence (P24863 whole entry partner): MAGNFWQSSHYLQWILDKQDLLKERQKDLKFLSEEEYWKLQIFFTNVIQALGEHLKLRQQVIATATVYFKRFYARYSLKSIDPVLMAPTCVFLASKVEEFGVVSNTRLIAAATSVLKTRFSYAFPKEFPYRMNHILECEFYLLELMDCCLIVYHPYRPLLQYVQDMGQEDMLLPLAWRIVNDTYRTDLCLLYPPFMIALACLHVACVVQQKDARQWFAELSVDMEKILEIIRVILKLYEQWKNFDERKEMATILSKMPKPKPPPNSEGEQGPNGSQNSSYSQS

[6] = in vitro; design: species or system HCT116, SH-SY5Y, U2OS; conditions: human, rpe-1 cells
[7] = target: CDK5/P25 (Homo sapiens, UniProt Q00535); experiment: biochemical; conditions: read-out: % of control remaining
Sequence of CDK5/P25 (Q00535 whole entry): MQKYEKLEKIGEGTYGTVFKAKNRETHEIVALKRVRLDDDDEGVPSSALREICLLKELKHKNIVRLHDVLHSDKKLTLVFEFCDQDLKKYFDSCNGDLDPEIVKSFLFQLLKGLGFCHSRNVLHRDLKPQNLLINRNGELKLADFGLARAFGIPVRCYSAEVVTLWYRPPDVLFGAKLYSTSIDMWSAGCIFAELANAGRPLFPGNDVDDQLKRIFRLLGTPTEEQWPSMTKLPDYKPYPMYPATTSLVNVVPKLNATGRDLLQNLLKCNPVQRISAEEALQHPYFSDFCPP
Sequence of CDK5/P25 (Q15078 whole entry partner): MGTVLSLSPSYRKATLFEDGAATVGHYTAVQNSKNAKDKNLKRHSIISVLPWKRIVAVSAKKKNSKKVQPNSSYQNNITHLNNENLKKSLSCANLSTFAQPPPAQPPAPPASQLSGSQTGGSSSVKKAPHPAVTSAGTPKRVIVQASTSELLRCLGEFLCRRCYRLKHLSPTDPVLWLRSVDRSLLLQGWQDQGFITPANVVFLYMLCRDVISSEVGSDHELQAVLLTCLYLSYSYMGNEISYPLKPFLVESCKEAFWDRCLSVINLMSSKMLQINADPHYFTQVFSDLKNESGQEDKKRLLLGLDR

[8] = tested on: HCT116; experiment: cells; design: species or system RPE-1, SH-SY5Y, U2OS; conditions: Homo sapiens, HCT-116, 48 h, read-out: HCT116 EC50
[9] = tested on: U2OS; experiment: cells; design: species or system RPE-1, HCT116, SH-SY5Y; conditions: Homo sapiens, 48 h, read-out: U2OS EC50
[10] = target: T3, CLK1 (MmCLK1) (Mus musculus, UniProt P22518); experiment: radiometric […]-ATP kinase assay, peptide GRSRSRSRSRSR; type: biochemical; conditions: read-out: % residual activity at 10 μM
T3 sequence (P22518 whole entry): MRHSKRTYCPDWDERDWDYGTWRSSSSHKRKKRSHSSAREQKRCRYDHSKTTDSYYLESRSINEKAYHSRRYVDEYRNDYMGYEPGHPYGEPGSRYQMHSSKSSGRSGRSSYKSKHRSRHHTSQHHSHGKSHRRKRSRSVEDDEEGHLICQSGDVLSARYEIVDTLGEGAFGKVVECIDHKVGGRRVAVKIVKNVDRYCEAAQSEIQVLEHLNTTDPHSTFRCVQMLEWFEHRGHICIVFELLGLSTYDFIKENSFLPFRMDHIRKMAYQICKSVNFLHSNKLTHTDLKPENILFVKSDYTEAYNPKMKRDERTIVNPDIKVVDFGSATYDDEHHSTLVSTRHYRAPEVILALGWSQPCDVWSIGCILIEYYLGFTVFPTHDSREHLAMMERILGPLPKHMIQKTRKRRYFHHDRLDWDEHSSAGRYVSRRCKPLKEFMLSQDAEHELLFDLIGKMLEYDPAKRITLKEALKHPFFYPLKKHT

[11] = target: T2, CDK8-cyclin C (HsCDK8/Cyclin C); experiment: radiometric […]-ATP kinase assay, RBER-IRStide substrate; type: biochemical
[12] = target: T1, DYRK1A (RnDYRK1A-kd); experiment: biochemical; conditions: read-out: % of control remaining
[13] = target: T3, CLK1 (MmCLK1); experiment: biochemical; conditions: read-out: % of control remaining
[14] = target: T4, HASPIN (Homo sapiens, UniProt Q8TF76); experiment: biochemical; conditions: read-out: % of control remaining
T4 sequence (Q8TF76 1-798): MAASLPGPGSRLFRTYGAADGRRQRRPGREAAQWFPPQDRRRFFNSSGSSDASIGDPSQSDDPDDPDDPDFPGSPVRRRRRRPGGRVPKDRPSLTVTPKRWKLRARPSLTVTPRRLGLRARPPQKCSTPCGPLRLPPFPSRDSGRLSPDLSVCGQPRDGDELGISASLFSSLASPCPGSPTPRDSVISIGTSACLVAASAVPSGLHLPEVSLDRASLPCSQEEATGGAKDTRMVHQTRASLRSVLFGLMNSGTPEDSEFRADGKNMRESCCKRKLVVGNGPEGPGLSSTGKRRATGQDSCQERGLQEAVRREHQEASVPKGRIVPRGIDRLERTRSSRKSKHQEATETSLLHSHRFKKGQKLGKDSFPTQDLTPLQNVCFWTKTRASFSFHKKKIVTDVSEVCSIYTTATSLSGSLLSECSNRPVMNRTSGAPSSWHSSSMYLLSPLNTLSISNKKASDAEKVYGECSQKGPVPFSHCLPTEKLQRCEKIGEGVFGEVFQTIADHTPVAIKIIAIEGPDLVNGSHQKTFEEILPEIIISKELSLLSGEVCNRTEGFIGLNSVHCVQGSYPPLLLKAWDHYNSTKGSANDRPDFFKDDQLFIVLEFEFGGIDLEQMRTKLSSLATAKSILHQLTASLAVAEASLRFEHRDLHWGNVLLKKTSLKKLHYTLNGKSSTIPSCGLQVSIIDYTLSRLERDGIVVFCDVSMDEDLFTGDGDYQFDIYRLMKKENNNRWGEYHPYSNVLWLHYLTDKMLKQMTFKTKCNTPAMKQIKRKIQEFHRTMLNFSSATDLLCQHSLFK

remaining activity at 10 µM [1] [%]	remaining activity at 10 µM [2] [%]	remaining activity at 10 µM [3] [%]	EC50 [4] [µM]	remaining activity at 10 µM [5] [%]	remaining activity at 10 µM [7] [%]	EC50 [8] [µM]	EC50 [9] [µM]	remaining activity at 10 µM [10] [%]	IC50 [11] [µM]	remaining activity at 10 µM [12] [%]	remaining activity at 10 µM [13] [%]	remaining activity at 10 µM [14] [%]	Structure (SMILES)	CC50 at 48 h [6] [µM]
81		89	> 50	5	107	> 50	> 50		0.2	75	109	118	O=C(NC[C@@H]1Cc2cc(-c3cncnc3)ccc2O1)c1scc2c1CCCC2 [compound 47, #47]	> 50
106		95	> 50	8	101	> 50	> 50		0.05	89	99	123	O=C(NC[C@H]1CC(=O)N(c2ccc3c(c2)OCO3)C1)Nc1cccc(C(F)(F)F)c1 [compound 75, #75]	> 50
73		109	> 50	11	89	> 50	> 50	37	0.1	80		116	O=C(Nc1ccc2oc(-c3cccnc3)nc2c1)c1ncoc1-c1ccccc1Cl [compound 76, #76]	> 50
120		89	24	19	109	31	10		0.005	134	81	111	Cc1ccc(NC(=O)Nc2ccc(Cc3ccncc3)cc2)cc1C [compound 82, #82]	> 50

The next lines start with the compound.

Structure (SMILES)	remaining activity at 10 µM [1] [%]	remaining activity at 10 µM [2] [%]	remaining activity at 10 µM [3] [%]	EC50 [4] [µM]	remaining activity at 10 µM [5] [%]	remaining activity at 10 µM [7] [%]	EC50 [8] [µM]	EC50 [9] [µM]	remaining activity at 10 µM [10] [%]	IC50 [11] [µM]	remaining activity at 10 µM [12] [%]	remaining activity at 10 µM [13] [%]	remaining activity at 10 µM [14] [%]	CC50 at 48 h [6] [µM]
N#Cc1ccc2ncnc(NCCc3ccccc3)c2c1 [Senexin A]	62	-7	78	> 50	15	57	> 50	48	34	0.03				41
O=C(CSc1ccc(-c2cccnc2)nn1)Nc1cccc(C(F)(F)F)c1 [compound 9, #9]	78		71	> 50	10	107	> 50	> 50		0.04	80	111	94	> 50
O=C(Nc1ccc(Cc2ccncc2)cc1)Nc1cccc2ccccc12 [compound 22, #22]	76		85	41	10	115	29	14		0.16	83	151	96	10
Cc1cccc(OCC(=O)Nc2ccc3oc(-c4cccnc4)nc3c2)c1C [compound 45, #45]	82		127	8	6	115	19	9		0.03	73	143	144	43
